One assay has as its target T1, IRAK3-ePL (Homo sapiens, UniProt Q9Y616).
T1 construct: expressed in transfected cells; host or cells: 293T CRBN OE/GSPT1 G575N KI cells, lentiviral transduction, puromycin selection
As to the kind of experiment: IRAK3-ePL overexpressing degradation assay. Format: cell-based. The following applies: IRAK3-ePL Lenti-X 293T CRBN/GSPT1 G575N cells, overnight incubation, top dose 10 μM. The method, then: Example B1. IRAK3-ePL Overexpressing Degradation Assay
Stable cell lines were generated by the following protocol. 3×10^5 Lenti-X 293T cells (Clonetech) were plated in 0.8 mL of media in a 12-well plate and incubated overnight at 37° C./5% CO2. Packaging plasmid (0.4 μg, pMD), envelope plasmid (0.4 μg, pSP), and lentiviral transfer IRAK3-ePL plasmid (0.8 μg, IRAK3 sequence NM_007199.3) were mixed in 0.1 mL of Opti-MEM and incubated for 5 min. Simultaneously, 2.4 μL of Lipofectamine 2000 (Invitrogen) was added to 0.1 mL of Opti-MEM (Gibco) and incubated for 5 min. The plasmid DNA and lipofectamine were combined and the mixture was allowed to incubate for 20 min. DNA:Lipofectamine Opti-MEM mixtures were then added to previously plated cells dropwise and the cells were incubated for ~16 h at 37° C./5% CO2. Following incubation, the media was removed and 1.2 mL of fresh media was added per well. Lenti-X 293T cells were incubated for ~30 h at 37° C./5% CO2. […] Following incubation, media was removed from the Lenti-X 293T wells and passed through a […]. Part of the viral supernatant was used to transduce cells and the rest was stored at −80° C. Viruses were then added individually (0.5 mL virus) to each well of the 293T^CRBN OE/GSPT1 G575N KI cells, followed by addition of polybrene (10 mg/mL Millipore) to each well at a final concentration of 5.0 μg/mL. Cells were incubated for ~24 h at 37° C./5% CO2. After aspirating media off plates, cells were washed with DPBS, trypsinized and plated in a 10 cm dish in 15 mL of media and 1 μg/mL puromycin. Following incubation of cells for ~72 h at 37° C./5% CO2, media was aspirated off plates, and cells were washed with DPBS and trypsinized. The cells were plated in a 15 cm dish in 40 mL of media with 1.0 μg/mL Puromycin (Gibco) and incubated for ~72 h at 37° C./5% CO2. Following incubation, media was removed and cells were washed with DPBS and trypsinized. The majority of cells were resuspended in Invitrogen freezing media and stored away (~6-8×10^6 cells/vial).
IRAK3-ePL cellular dose response curve degradation assays were performed by the following protocol. Compounds to be tested were dispensed into a white 384-well tissue-culture treated plate using an acoustic liquid handler. Dilutions were prepared based on a 25 μL assay volume in duplicate 10 point 3-fold serial dilutions starting with a 10 μM dose. Negative control wells were included, which only contain 0.2% DMSO to calculate 100% signal. Positive control wells containing 30 μM Ataluren (luciferase inhibitor) were included to calculate the background signal level. All wells were backfilled to a final DMSO concentration of 0.2% to ensure DMSO uniformity across wells. IRAK3-ePL expressing cells (IRAK3-ePL Lenti-X 293T^CRBN/GSPT1 G575N) were washed, trypsinized, counted, and resuspended in fresh DMEM (Gibco) to give a cell concentration of 200,000 cells/mL. 25 μL of cells (5,000 cells/well) were dispensed into the wells of the 384-well plate prespotted with compounds in the previous step and incubated overnight at 37° C./5% CO2. Following incubation, the 384-well plate was taken out of the incubator and left at room temperature for 30 min. InCELL hunter reagent was prepared according to manufacturer's instructions (EA reagent, lysis buffer, and substrate reagent in a 1:1:4 ratio, Cat #96-0002, DiscoverX), which was added to the 384-well plate 25 μL per well. Following the incubation of the plate for 1 h at room temperature, the luminescence signal was read using a ViewLux plate reader. Data was processed and analyzed in ActivityBase software. In short, the average luminescence values of the positive control wells were subtracted from the rest of the wells for background correction, and all luminescence values were normalized to the DMSO control wells. The average value of the DMSO control wells was set to equal 100% of the relative IRAK3-ePL protein levels. […]

Another assay addresses T2, IRAK3 (Homo sapiens, UniProt Q9Y616).
T2 sequence (Q9Y616 1-596): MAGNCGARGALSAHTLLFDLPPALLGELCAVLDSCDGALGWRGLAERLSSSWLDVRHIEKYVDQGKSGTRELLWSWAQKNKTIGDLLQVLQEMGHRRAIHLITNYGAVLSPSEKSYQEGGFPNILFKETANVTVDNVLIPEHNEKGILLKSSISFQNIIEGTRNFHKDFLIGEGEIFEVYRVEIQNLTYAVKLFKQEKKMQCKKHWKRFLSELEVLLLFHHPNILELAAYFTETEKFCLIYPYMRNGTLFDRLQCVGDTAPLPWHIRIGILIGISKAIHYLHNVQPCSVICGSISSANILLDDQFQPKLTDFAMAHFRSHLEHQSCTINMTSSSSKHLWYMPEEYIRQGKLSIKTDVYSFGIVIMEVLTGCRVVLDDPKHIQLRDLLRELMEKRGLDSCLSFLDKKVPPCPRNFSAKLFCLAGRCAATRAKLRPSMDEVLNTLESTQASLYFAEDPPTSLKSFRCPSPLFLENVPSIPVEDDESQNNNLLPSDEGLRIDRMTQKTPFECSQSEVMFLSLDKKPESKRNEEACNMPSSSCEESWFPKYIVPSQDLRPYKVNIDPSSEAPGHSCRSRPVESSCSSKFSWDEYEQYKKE
Description: IRAK endogenous HTRF degradation assay (Total-IRAK3 HTRF kit). Format: cell-based. On the set-up: IRAK Endogenous HTRF Degradation Assay; endogenous in cells. The settings on record: endogenous IRAK3, overnight incubation; % Dmax = 100 − Ymin. The procedure:
Example B2. IRAK Endogenous HTRF Degradation Assay
Cells (~50k) were plated in Cisbio 96-well low volume white plates (Cisbio: cat #66PL96005). Compounds were dissolved in DMSO and a 3-fold serial dilution was performed using a TECAN D300E. Cells were incubated with the compound overnight. Total-IRAK3 HTRF kit from Cisbio was used for degradation analysis (Cisbio: 63ADK101PEH). Cryptate and D2 antibodies were diluted in Detection buffer as per manufacturers recommendation. Then 2 μL of each solution was added to 16 μL lysate. Buffer control (lysis buffer detection buffer), Cryptate control (lysis buffer+cryptate antibody+detection buffer), and Negative control (lysis buffer+cryptate antibody+D2 antibody) were made as per manufacturers recommendation. Post incubation with antibodies the HTRF signal was measured using a Perkin Elmer Envision reader and the HTRF signal was calculated using formula: (Emission at 665 nm/Emission at 615 nm)*10,000. All HTRF values were normalized to the average value of DMSO. The average value of the DMSO control wells were set to equal 100% of the relative IRAK3 protein levels. Normalized luminescence values were plotted on a graph as a function of compound concentration. Compound concentration was plotted on the x-axis and the corresponding normalized IRAK3 protein levels on the y-axis. The EC50 value (the half-maximum effective concentration) of a compound for the degradation of the IRAK3 was calculated using a four-parameter logistic model (sigmoidal dose-response model) (FIT=(A+{(B−A)/1+[(C/x)D]})) where C is the inflection point (EC50), D is the […], and A and B are the low and high limits of the fit, respectively). The Ymin was calculated by determining the lowest percentage of target protein remaining following compound treatment. Dmax was calculated from Ymin (% Dmax=100−Ymin).
Using these assays, IC50, Dmax, EC50, and DC50 values of the following compounds were determined. Dmax is defined as the maximum percent degradation achieved and DC50 is the concentration at which 50% degradation is achieved.
(In general: TR-FRET usually uses a lanthanide donor and a delayed reading to cut background.)

A value given as a limit tells only on which side of the number the result lay.

Broadly, the Dmax is the greatest extent of degradation seen. `Cc1ncsc1-c1ccc(CNC(=O)[C@@H]2C[C@@H](O)CN2C(=O)[C@@H](NC(=O)COCCOCCOCCOCCOCCN2CCC(n3cc(-c4cnc(N)c(O[C@H](C)c5c(Cl)ccc(F)c5Cl)c4)cn3)CC2)C(C)(C)C)cc1` [Compound 5, (2S,4R)-1-((S)-20-(4-(4-(6-amino-5-((R)-1-(2,6-dichloro-3-fluorophenyl)ethoxy)pyridin-3-yl)-1H-pyrazol-1-yl)piperidin-1-yl)-2-(tert-butyl)-4-oxo-6,9,12,15,18-pentaoxa-3-azaicosanoyl)-4-hydroxy-N-(4-(4-methylthiazol-5-yl)benzyl)pyrrolidine-2-carboxamide]: the Dmax on IRAK3-ePL (HEK-293T, maximum percentage loss of target protein) turned out to be 23%; at IRAK3 it was 34%. The DC50 on IRAK3-ePL (read-out: IRAK3 ePL degradation EC50) was > 10 µM.

The values are drawn from patent US20260234124A1, “Substituted Pyrazolyl-Pyridinyl Compounds as Ligand Directed Degraders of IRAK3” (Celgene Corporation, priority 2022, published 2026).
